Test results published in patent US8022205B2, “Pyrimidine derivatives as PI3K inhibitor and use thereof” (Chugai Seiyaku Kabushiki Kaisha, priority 2006, dated 2011).

Legend:
human PI3K(p110α/p85α) = human PI3K(p110α/p85α) (Homo sapiens, UniProt P42336); assay: Measurement of PI3K inhibitory activity (AlphaScreen GST Detection Kit); type: biochemical; details: 10 μM ATP, 4 μM PI(4,5)P2, read-out: Enzyme inhibitory activity (IC50, μM) PI3K α
Outline: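 AlphaScreen read-out: after 1 h at room temperature, GST-GRP1, biotin-PI(3,4,5)P3 and donor/acceptor beads sensed PIP3 made by the enzyme. The kinase reaction used baculovirus-made human PI3K p110α/p85α with 10 μM ATP and 4 μM PI(4,5)P2 for 15 min at 37 °C, following a 20-min compound preincubation.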

[1] = system: human prostate cancer cell line PC3; assay: Cell proliferation inhibitory activity (Cell Counting Kit-8), prostate cancer PC3; type: cell-based; details: 96 h, PC3, 4 days
Outline: (§1)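 PC3 (3000 cells/well) or NCI-H460 (1000 cells/well) exposed to compound for 4 days at 37 °C in CO2. CCK-8 absorbance at 450 nm (reference 615 nm); percent proliferation inhibition calculated at 2.5 µM.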

[2] = system: human lung cancer cell line NCI-H460; assay: Cell proliferation inhibitory activity (Cell Counting Kit-8), lung cancer NCI-H460; type: cell-based; details: 96 h, NCI-H460, 4 days, read-out: Cell proliferation inhibitory activity (% Inhibition at 2.5 μM) Non-small cell lung cancer (NCI-H460)
Outline: as §1

[3] = system: human colon cancer cell line HCT116; assay: Cell proliferation inhibitory activity (Cell Counting Kit-8), colon cancer HCT116; type: cell-based; details: HCT-116, 96 h, HCT116, 4 days
Outline: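 HCT116 cells (2000/well) were exposed to compounds for 4 days at 37 °C under CO2. Viability was then read with CCK-8 as absorbance at 450 nm (reference 615 nm).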

Chain of human PI3K(p110α/p85α) (P42336 whole entry): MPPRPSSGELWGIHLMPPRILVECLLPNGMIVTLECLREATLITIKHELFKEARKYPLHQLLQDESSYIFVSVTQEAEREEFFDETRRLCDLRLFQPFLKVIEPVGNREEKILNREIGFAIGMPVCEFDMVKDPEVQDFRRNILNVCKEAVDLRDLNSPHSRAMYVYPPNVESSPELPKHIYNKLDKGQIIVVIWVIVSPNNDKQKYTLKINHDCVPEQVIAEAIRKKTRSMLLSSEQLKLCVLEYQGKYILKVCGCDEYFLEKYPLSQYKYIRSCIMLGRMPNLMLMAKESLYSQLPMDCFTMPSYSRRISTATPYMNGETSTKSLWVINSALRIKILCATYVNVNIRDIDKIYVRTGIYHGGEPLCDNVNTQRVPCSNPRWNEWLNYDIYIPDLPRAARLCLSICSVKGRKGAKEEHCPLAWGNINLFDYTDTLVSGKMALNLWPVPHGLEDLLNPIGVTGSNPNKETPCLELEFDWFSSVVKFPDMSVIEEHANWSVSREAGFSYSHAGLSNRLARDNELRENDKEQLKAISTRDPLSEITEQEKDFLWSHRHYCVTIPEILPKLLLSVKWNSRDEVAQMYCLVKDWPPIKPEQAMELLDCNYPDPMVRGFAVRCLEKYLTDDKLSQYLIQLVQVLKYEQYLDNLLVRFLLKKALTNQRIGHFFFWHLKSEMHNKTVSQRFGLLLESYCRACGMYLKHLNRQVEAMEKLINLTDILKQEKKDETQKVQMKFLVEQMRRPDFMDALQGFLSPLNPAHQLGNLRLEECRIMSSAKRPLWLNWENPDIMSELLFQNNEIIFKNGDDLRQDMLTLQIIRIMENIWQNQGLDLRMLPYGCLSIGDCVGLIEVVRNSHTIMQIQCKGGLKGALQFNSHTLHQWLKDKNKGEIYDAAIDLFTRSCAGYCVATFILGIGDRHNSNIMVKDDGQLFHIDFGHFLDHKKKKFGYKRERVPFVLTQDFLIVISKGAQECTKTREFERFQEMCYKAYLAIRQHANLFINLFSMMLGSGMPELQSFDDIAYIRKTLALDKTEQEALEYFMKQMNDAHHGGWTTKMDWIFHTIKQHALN
Chain of human PI3K(p110α/p85α) (P27986 whole entry partner): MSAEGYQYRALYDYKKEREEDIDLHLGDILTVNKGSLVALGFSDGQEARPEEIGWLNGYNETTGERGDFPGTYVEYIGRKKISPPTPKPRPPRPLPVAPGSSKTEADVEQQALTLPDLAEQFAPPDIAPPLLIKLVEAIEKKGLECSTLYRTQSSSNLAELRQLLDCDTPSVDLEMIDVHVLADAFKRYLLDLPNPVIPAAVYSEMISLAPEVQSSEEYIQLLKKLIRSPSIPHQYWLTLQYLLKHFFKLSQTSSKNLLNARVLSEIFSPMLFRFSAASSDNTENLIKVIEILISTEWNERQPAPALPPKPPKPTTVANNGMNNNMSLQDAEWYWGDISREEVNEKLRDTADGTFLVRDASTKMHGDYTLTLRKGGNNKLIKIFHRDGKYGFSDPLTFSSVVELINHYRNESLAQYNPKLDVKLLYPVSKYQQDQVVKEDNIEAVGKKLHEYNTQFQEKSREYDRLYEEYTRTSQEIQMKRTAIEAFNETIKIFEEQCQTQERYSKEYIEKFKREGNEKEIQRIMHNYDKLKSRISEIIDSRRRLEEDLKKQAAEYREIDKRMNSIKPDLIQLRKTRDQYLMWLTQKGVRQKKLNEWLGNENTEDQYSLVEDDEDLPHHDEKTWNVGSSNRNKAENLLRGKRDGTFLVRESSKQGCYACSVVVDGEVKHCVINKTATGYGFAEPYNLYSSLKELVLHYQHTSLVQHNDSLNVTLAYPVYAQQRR

| Compound | IC50 (human PI3K(p110α/p85α)) [µM] | inhibition at 2.5 µM [1] [%] | inhibition at 2.5 µM [2] [%] | inhibition at 2.5 µM [3] [%] |
| --- | --- | --- | --- | --- |
| CN1CCN(Cc2ccc3cc(N4CCc5c(-c6cnc(N)nc6)nc(N6CCOCC6)nc54)ccc3c2)CC1 [Example D-333, 5-{7-[6-(4-methyl-piperazin-1-ylmethyl)naphthalen-2-yl]-2-morpholin-4-yl-6,7-dihydro-5H-pyrrolo[2,3-d]pyrimidin-4-yl}-pyrimidin-2-ylamine] | 0.16 | 43 | 102 | 99 |
| Nc1ncc(-c2nc(N3CCOCC3)nc3c2CCN3c2ccc(CNCc3cccnc3)cc2)cn1 [Example D-334] | 0.2 | 90 | 94 | 93 |
| CN(C)CCNC(=O)c1cccc(-c2nc(N3CCOCC3)nc3c2CCN3c2cccnc2)c1 [Example G-05, N-(2-dimethylaminoethyl)-3-(2-morpholin-4-yl-7-pyridin-3-yl-6,7-dihydro-5H-pyrrolo[2,3-d]pyrimidin-4-yl)-benzamide] | 0.36 | 49 | 55 | 38 |
| CN(C)CCOC(=O)c1cccc(-c2nc(N3CCOCC3)nc3c2CCN3c2cccnc2)c1 [Example G-27, 3-(2-Morpholin-4-yl-7-pyridin-3-yl-6,7-dihydro-5H-pyrrolo[2,3-d]pyrimidin-4-yl)-benzoic acid 2-dimethylamino-ethyl ester] | 0.33 | 48 | 18 | 44 |

Second part, led by results:

| IC50 (human PI3K(p110α/p85α)) [µM] | Compound | inhibition at 2.5 µM [1] [%] | inhibition at 2.5 µM [2] [%] | inhibition at 2.5 µM [3] [%] |
| --- | --- | --- | --- | --- |
| 0.02 | CN(C)CCCNc1cc(N2CCc3c(-c4cccc(O)c4)nc(N4CCOCC4)nc32)ccn1 [Example H-12, 3-{7-[2-(3-Dimethylamino-propylamino)-pyridin-4-yl]-2-morpholin-4-yl-6,7-dihydro-5H-pyrrolo[2,3-d]pyrimidin-4-yl}-phenol] | 76 | 71 | 82 |
| 0.018 | CN(C)CCOc1cc(N2CCc3c(-c4cnc(N)nc4)nc(N4CCOCC4)nc32)ccn1 [Example H-32, 5-[7-(2-Dimethylaminoethoxy-pyridin-4-yl)-2-morpholin-4-yl-6,7-dihydro-5H-pyrrolo[2,3-d]pyrimidin-4-yl]-pyrimidin-2-ylamine] | 89 | 86 | 82 |
| 0.011 | CCN1CCN(c2cc(N3CCc4c(-c5cnc(N)nc5)nc(N5CCOCC5)nc43)ccn2)CC1 [Example H-34, 5-{7-[2-(4-Ethyl-piperazin-1-yl)-pyridin-4-yl]-2-morpholin-4-yl-6,7-dihydro-5H-pyrrolo[2,3-d]pyrimidin-4-yl}-pyrimidin-2-ylamine] | 91 | 89 | 81 |
